Source: patent US20220273617A1, “ANTI-CANCER, ANTI-INFLAMMATORY AND IMMUNOMODULATORY ACTIVITY OF R-CARVEDILOL AND METHODS OF USE” (priority 2021, published 2022)

How the values were obtained:
[1] = test system: B(a)P-induced lung tumor; experiment: Long term B(a)P-induced lung carcinogenesis in A/J mice; assay type: in vivo; conditions: for tumor incidence: B(a)P only 100%
Protocol: To examine the chemopreventive efficacy of carvedilol, we used an established lung carcinogenesis model in A/J mice induced by B(a)P. Two drug doses were examined: 20 mg/kg (H) and 3.2 mg/kg (L). The mice were randomly divided by body weight into seven groups at the beginning of the experiments. To induce lung tumor, mice were given a single intraperitoneal (i.p.) injection of B(a)P at 100 mg/kg body weight in 0.2 ml tricaprylin. The following are treatment groups: (1) vehicle control, n=8; (2) B(a)P only, n=9; (3) B(a)P+gefitinib 400 mg/kg, weekly oral gavage, positive control, n=10; (4) B(a)P+carvedilol 20 mg/kg drinking water, n=9; (5) B(a)P+carvedilol 3.2 mg/kg drinking water, n=8; (6) B(a)P+R-carvedilol 20 mg/kg drinking water, n=9; (7) B(a)P+R-carvedilol 3.2 mg/kg drinking water, n=10. The mice began the drug treatments 3 weeks before B(a)P treatment and terminated at 23 weeks after B(a)P treatment. […] Tumor multiplicity was determined by counting surface tumors in fixed lung under a dissecting microscope. […] The tumor incidence for gefitinib group was 70%. The tumor incidence was 89% and 50% for high and low dose carvedilol, respectively. The tumor incidence was 67% and 70% for high and low dose R-carvedilol, respectively.

[2] = test system: B(a)P-induced lung toxicity; experiment: Short term single dose B(a)P-induced lung toxicity in mice; assay type: in vivo, CD1/IGS mice; conditions: for plasma LDH levels / plasma MDA levels (LPO): B(a)P 125 mg/kg on day 7
Description: Chronic exposure to carcinogens that are present in tobacco smoking or air pollution is a well-known cause of lung cancer. One of the most important strategies to manage lung cancer is chemoprevention, which uses synthetic or natural products to block or reverse lung cancer initiation, promotion, and progression. Benzo(a)pyrene (B(a)P), a polycyclic aromatic hydrocarbon, is a pro-carcinogen ubiquitously present as pollutants in the environment. It is mostly produced during cigarette smoking and is present in automobile exhausts, and causes lung toxicity and lung cancer after metabolic activation. A single dose B(a)P-induced lung toxicity study in mice was used to evaluate the protective effects of carvedilol. In male CD1/IGS mice, carvedilol was orally administered (20 mg/kg body weight) once a day for 7 days. The mice were then treated with a single dose B(a)P via oral gavage (125 mg/kg body weight) on day 7, 30 min after the drug treatment. Mice were sacrificed 24 hours after B(a)P treatment. As expected, B(a)P increased the plasma levels of lactate dehydrogenase (LDH) and Malondialdehyde (MDA) for lipid peroxides (LPO).

[3] = test system: JB6; experiment: EGF-induced JB6 transformation; assay type: cell-based, mouse
[4] = test system: JB6; conditions: among 16 β-blockers examined (Cleveland K H, 2019); cited from earlier work
[5] = test system: UV-induced immunosuppression; experiment: UV-induced suppression of contact hypersensitivity (CHS) to DNFB; assay type: in vivo, SKH-1 hairless mice; conditions: single dose i.p. 2 h before UV 224 mJ/cm^2; carvedilol 1 and 10 mg/kg, R-carvedilol 10 mg/kg
Protocol: Mice were treated with NS398, CAR or R-CAR (L: 1 mg/kg; H: 10 mg/kg) i.p. 2 hr before UV exposure (224 mJ/cm^2). 24 h after, mice were sensitized with DNFB on back. After 7 days, the right ears were challenged with DNFB. 24 h after, 5 mm punch biopsies were obtained from both ears and weighed. The data are the mean±SE difference in ear biopsy weights (right-left) from n=5 mice (male). *: P<0.05; **: P<0.01.
The data listed are the mean±SE difference in ear biopsy weights (Right-Left) from n=5 mice (male). *: P<0.05; **:P<0.01.
Immunosuppression induced by UV radiation is commonly investigated using the contact hypersensitivity (CHS) response to contact allergens such as the hapten dinitrofluorobenzene (DNFB). […] Thus, carvedilol's skin cancer preventive activity may be partly attributed to its inhibitory effects on UV-induced immunosuppression.
The mice were pretreated with single dose of R-carvedilol (10 mg/kg, i.p.) two hours before UV radiation, and were subject to UV exposure. […] Thus, R-carvedilol, although not a β-blocker, similarly reverses UV-induced immunosuppression.
CHS assay was used to evaluate the effects of a topical delivery system of carvedilol developed by us, named “T-CAR”, on UV-induced immunosuppression. […]

[6] = test system: B16-F10 tumor; experiment: B16-F10 tumor bearing C57BL/6 mice; assay type: in vivo; conditions: topical daily
Protocol: Comparison of the efficacy of free drug and T-CAR (day 14). One day after tumor inoculation (two tumors per mouse, mice received free drug or T-CAR daily.
One day after tumor inoculation (one per mouse), mice received free drug or T-CAR daily, 200 μg RMP1-14 twice a week, or combination.
A: group 1, control; B: group 4, T-CAR+RMP1-14. Tumor collected at day 20 after inoculation.
Tumor collected at day 20 after inoculation.
The carvedilol loaded transfersome, T-CAR, was evaluated in vitro and in vivo on melanoma growth. […] To examine the in vivo activity of T-CAR, in C57BL/6 mice bearing the B16-F10 tumor, the T-CAR gel as a topical monotherapy was examined. The efficacy of T-CAR was compared with free drug dissolved in acetone in male mice bearing B16-F10 (two tumors inoculated in each mouse). […] Second study examined efficacy of topical T-CAR combined with anti-PD-1 (RMP1-14, 200 μg per mouse, i.p. twice per week) (one tumor was inoculated in each mouse).

[7] = Systolic blood pressure of mice, noninvasive tail-cuff system; assay type: in vivo; conditions: mouse, in vivo, 32 mg/kg/day
Protocol: SKH-1 mice were given racemic carvedilol or R-carvedilol in drinking water for two weeks (32 mg/kg/day). Blood pressure was examined in mice utilizing a Kent CODATM noninvasive tail-cuff system.

[8] = Ex vivo permeation across rat skin, Franz diffusion cells; assay type: in vitro ADME; conditions: rat, 200 μg/mL
Protocol: Instead of nanoparticle-based topical delivery, the present inventors have explored other methods of skin delivery of drugs. They investigated the effects of natural penetration enhancers on the ex vivo permeation of carvedilol across rat skin. […] The drug formulations containing carvedilol or R-carvedilol (200 μg/mL) (1 mL) was loaded on Franz diffusion cells using excised rat dorsal skin (with hair removed). […] D-limonene is isolated from orange peel, and is a cheap and safe option to delivery carvedilol (same for R-carvedilol) for skin cancer prevention. D-limonene is present in many skin commercial products such as perfumes and essential oils. Therefore, this invention provides another novel approach of making skin targeting formulation for both carvedilol and R-carvedilol. This approach of making skin formulation is not only safe but also easier to scale up to industry level for making large amount.

[9] = test system: UV induced skin carcinogenesis; experiment: Chronic UV induced skin carcinogenesis model; assay type: in vivo, mice; conditions: topical, chronic UV
[10] = orally administered; cited from earlier work
[11] = test system: 4T1; experiment: Triple negative breast tumor 4T1 in BalB/C mice; assay type: in vivo
Protocol: To investigate the effect of carvedilol and R-carvedilol on breast cancer growth, the BalB/C mice were treated with the drugs (20 mg/kg/day) in drinking water for two weeks before the mice were inoculated with murine triple negative breast tumor 4T1 in the fourth left mammary fat pad. […] The same experimental model was treated with carvedilol or R-carvedilol, in combination with the anti-PD-1 therapy.

[12] = oral 20 mg/kg once a day for 7 days

## COc1cc2ncnc(Nc3ccc(F)c(Cl)c3)c2cc1OCCCN1CCOCC1 [gefitinib]
[1]; 400 mg/kg weekly oral gavage, positive control
  tumor incidence: 70%

## COc1ccccc1OCCNC[C@H](O)COc1cccc2[nH]c3ccccc3c12 [S-carvedilol]
[2]; [12]
  plasma LDH levels: significantly attenuated
  plasma MDA levels (LPO): significantly attenuated
[2]; oral, compared with racemic carvedilol
  protection against B(a)P-induced histological changes and COX-2 expression: same degree of protection as the racemic carvedilol
[3]
  inhibitory effects on EGF-induced JB6 transformation: nearly identical inhibitory effects

## COc1ccccc1OCCNCC(O)COc1cccc2[nH]c3ccccc3c12 (racemic) [carvedilol]
[1]; high dose 20 mg/kg drinking water
  tumor incidence: 89%
[1]; low dose 3.2 mg/kg drinking water
  tumor incidence: 50%
[1]; lower dose 3.2 mg/kg drinking water
  tumor multiplicity: significantly attenuated
[4]
  potency in preventing EGF-induced neoplastic transformation of mouse epidermal cells: highest potency
[5]
  UV-induced CHS suppression: reversed UV-induced suppression of CHS
[2]; [12]
  B(a)P-induced expression of COX-2 in lung (IHC): attenuated
  plasma LDH levels: significantly attenuated
  plasma MDA levels (LPO): significantly attenuated
[2]; oral 20 mg/kg once a day for 7 days, H&E
  B(a)P-induced lung morphological changes (histology): reduction in these morphological changes
[6]; 10 μM, day 14, two tumors per mouse, male mice
  tumor inhibition (total tumor volume): trend of tumor inhibition
[6]; free drug in acetone 100 μM (CAR H), day 14
  tumor inhibition (total tumor volume): less effective
[7]
  mean systolic blood pressure: statistically reduced mean systolic blood pressure
[8]
  permeation: 1.6 ± 0.25 µg
[8]; pH 7.4
  permeation: 0.430 /−0.07 μg
[9]
  delay in tumor formation compared to UV only controls: 3 week
[10]
  bioavailability: 24%
[11]; 20 mg/kg/day in drinking water from two weeks before inoculation, monotherapy
  tumor growth: significantly reduced
[11]; same 4T1 model, combined with anti-PD-1
  efficacy in combination with anti-PD-1 therapy: enhanced the efficacy of anti-PD-1 monotherapy
